Earlier results as cited in patent publication US5545628A, “Pharmaceutical composition containing fenofibrate” (priority 1995, dated 1996).

Row | SMILES | absorption as metabolite (oral) | excretion (fenofibric acid, mainly as the glucuronide conjugate)
1 | CC(C)OC(=O)C(C)(C)Oc1ccc(C(=O)c2ccc(Cl)cc2)cc1 [Fenofibrate, P-(4-chlorobenzoyl)-phenoxy isobutyrate isopropyl ester] | absorbed as fenofibric acid | –
2 | CC(C)(Oc1ccc(C(=O)c2ccc(Cl)cc2)cc1)C(=O)O [Fenofibric acid] | – | excreted predominantly in the urine
